# Source: US11413278B2, “Compounds and methods for promoting stress resistance” (priority 2015, dated 2022)
# pEC50: −log10 of the molar value. Read-outs that look alike come from different tables or passages of the source.
# Legend:
# WI-38 cells [1] = settings: for No H2O2 stress treatment, at 10 uM (fold change): normalized ATP measurement; for Assay 1: H2O2-resistant: YES/NO, if NO, possibly due to repeated freezing/thawing of stocks
# FOXO3 = FOXO3 siRNA knockdown: dependency for H2O2-resistance; assay type: cell-based, human
# [2] = system: phosphorylated γH2A.X and TP53BP1; experiment: DNA damage marker analysis (immuno-staining); settings: for activity at 10 µM: Homo sapiens, WI-38, 24 h; for P = Potential DNA-damaging / R = Potential DNA damaging: human, 24 h
# Summary of the method: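 WI-38 cells were cultured 24 h, then treated with compounds for 24 h; H2O2 (700 μM, 3 h) and doxorubicin (300 nM, 24 h) served as DNA-damage controls. After fixation, cells were immunostained for phospho-γH2A.X (Ser-139) and phospho-TP53BP1 (Ser-1778), counterstained with DAPI, and imaged by automated high-content microscopy.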
# WI-38 cells [3] = experiment: Long-term effects on cell viability (5 days, ATP; morphology, PI imaging); assay type: cell-based; settings: 10 μM; for Luminescence signal for ATP measurement, day-1 Average / Luminescence signal for ATP measurement, day-2 Average / Luminescence signal for ATP measurement, day-3 Average / Luminescence signal for ATP measurement, day-4 Average / Luminescence signal for ATP measurement, day-5 Average / viability at 10 µM: Batch 1; for Luminescence signal for ATP measurement, day-1 Average / Luminescence signal for ATP measurement, day-2 Average / Luminescence signal for ATP measurement, day-3 Average / Luminescence signal for ATP measurement, day-4 Average / Luminescence signal for ATP measurement, day-5 Average: n = 6, day-0 luminescence = 320956 ± 24708; for viability at 10 µM: Homo sapiens, WI-38, 120 h, DMSO ctrl = 100.0%, read-out: ATP luminescence by day-5 normalized; for Luminescence signal for ATP measurement, day-5 Average / viability at 10 µM: day-5;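 for Luminescence signal for ATP measurement, day-2 Average: compounds at 10 µM with ATP read daily over 5 days of treatment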;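 for Luminescence signal for ATP measurement, day-3 Average: compounds at 10 µM with ATP read daily over 5 days of treatment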;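 for Luminescence signal for ATP measurement, day-4 Average: compounds at 10 µM with ATP read daily over 5 days of treatment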;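 for Luminescence signal for ATP measurement, day-5 Average: compounds at 10 µM with ATP read daily over 5 days of treatment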
# C. elegans = C. elegans lifespan assays (liquid and plate); assay type: in vivo, Caenorhabditis elegans; settings: for ILS at 60 µM / ILS at 66 µM: Caenorhabditis elegans; for O = Life span- extending scores in worms: score scale 0 to 2, 4 to 6 independent trials; for M = Lifespan-extending scores in worms: summary score
# [4] = WI-38 cells, 10 μM, (*) = compromised ability to protect cells from H2O2, could be due to stability issue
# [5] = asterisks indicate the loss of the ability to protect cells from H2O2 over time
# [6] = derived from dose response curves, 0.6-20 uM, H2O2-resistance of WI-38 cells
# [7] = read-out: Est. ED50, dose response 0.6-20 μM, H2O2-resistance
# [8] = read-out: Experiment 1, H2A.X-P DNA damage foci staining (no H2O2 stress treatment), at 10 uM
# [9] = read-out: Experiment 2, H2A.X-P DNA damage foci staining (no H2O2 stress treatment), at 10 uM
# [10] = read-out: Experiment 2, H2A.X-P DNA damage foci staining (under H2O2 stress treatment), at 10 uM
# [11] = read-out: Experiment 2, TP53BP1-P DNA damage foci staining (no H2O2 stress treatment), at 10 uM
# [12] = read-out: Experiment 2, TP53BP1-P DNA damage foci staining (under H2O2 stress treatment), at 10 uM
# [13] = in liquid, wild type, with FuDR, 1.0 × 10^9 bacteria/ml, read-out: relative change of mean lifespan vs control, Trial 1
# [14] = in liquid, wild type, with FuDR, 2.5 × 10^9 bacteria/ml, read-out: relative change of mean lifespan vs control, Trial 2
# [15] = on plate, CF512 temperature-sensitive sterile animals, without FuDR, 2.0 × 10^10 bacteria/ml, read-out: relative change of mean lifespan vs control, Trial 3
# [16] = Assay 2(z), 1.0 × 10^9 bacteria/ml, wild type + FuDR (2012 July), read-out: Lifespan assay in liquid
# [17] = Assay 3(aa), 2.5 × 10^9 bacteria/ml, wild type + FuDR, read-out: Lifespan assay in liquid
# [18] = Assay 4(ab), 2.0 × 10^10 bacteria/ml, CF512 worms, no FuDR, read-out: Lifespan assay on plates
compound,measurement,setting,value
O=C(Nc1cccc(C(F)(F)F)c1)c1ccc([N+](=O)[O-])o1 [Gr-1E],H2O2-resistant,WI-38 cells [1]; [4],YES
same,"No H2O2 stress treatment, at 10 uM (fold change)",WI-38 cells [1]; WI-38 cells,0.96 fold change
same,Assay 1: H2O2-resistant,WI-38 cells [1],YES
same,H2O2-resistant,WI-38 cells [1]; [5],YES
same,pEC50,WI-38 cells [1]; [6],5.43
same,pEC50,WI-38 cells [1]; [7],5.56
same,I = FOXO3-dependency for H2O2-resistance,FOXO3; score,0
same,I = FOXO3-dependency for H2O2-resistance,FOXO3; summary score,0
same,activity at 10 µM,[2]; [8],162%
same,activity at 10 µM,[2]; [9],107%
same,activity at 10 µM,[2]; [10],151%
same,activity at 10 µM,[2]; [11],289%
same,activity at 10 µM,[2]; [12],475%
same,P = Potential DNA-damaging,[2],0
same,R = Potential DNA damaging,[2],0
same,"Luminescence signal for ATP measurement, day-1 Average",WI-38 cells [3],474558
same,"Luminescence signal for ATP measurement, day-2 Average",WI-38 cells [3],698358
same,"Luminescence signal for ATP measurement, day-3 Average",WI-38 cells [3],788420
same,"Luminescence signal for ATP measurement, day-4 Average",WI-38 cells [3],1038011
same,"Luminescence signal for ATP measurement, day-5 Average",WI-38 cells [3],1066135
same,viability at 10 µM,WI-38 cells [3],104%
same,O = Potential toxicity,"WI-38 cells [3]; human, 5 days",0
same,Q = Potential toxicity,"WI-38 cells [3]; human, 5 days",0
same,ILS at 60 µM,C. elegans; [13],17.4%
same,ILS at 60 µM,C. elegans; [14],6.3%
same,ILS at 60 µM,C. elegans; [15],13.8%
same,ILS at 66 µM,C. elegans; [16],17.4%
same,ILS at 66 µM,C. elegans; [17],6.3%
same,ILS at 66 µM,C. elegans; [18],13.8%
same,Extension of C. elegans' lifespan (qualitative),"C. elegans; in at least 3 to 4 trials, group range ~10% to ~50%",could extend animal's lifespan
same,O = Life span- extending scores in worms,C. elegans,2 (2 for observed in more than 2 trials)
same,M = Lifespan-extending scores in worms,C. elegans,2 (2 for observed in more than 2 trials)
Cc1cc(N)n(-c2ccccc2C(=O)O)n1 [Gr-6A],H2O2-resistant,WI-38 cells [1]; [4],YES
same,"No H2O2 stress treatment, at 10 uM (fold change)",WI-38 cells [1]; WI-38 cells,1.10 fold change
same,Assay 1: H2O2-resistant,WI-38 cells [1],YES
same,H2O2-resistant,WI-38 cells [1]; [5],YES
same,pEC50,WI-38 cells [1]; [6],4.86
same,pEC50,WI-38 cells [1]; [7],4.39
same,I = FOXO3-dependency for H2O2-resistance,FOXO3; score,0
same,I = FOXO3-dependency for H2O2-resistance,FOXO3; summary score,0
same,activity at 10 µM,[2]; [8],117%
same,activity at 10 µM,[2]; [9],59.9%
same,activity at 10 µM,[2]; [10],200%
same,activity at 10 µM,[2]; [11],138%
same,P = Potential DNA-damaging,[2],0
same,R = Potential DNA damaging,[2],0
same,"Luminescence signal for ATP measurement, day-1 Average",WI-38 cells [3],581273
same,"Luminescence signal for ATP measurement, day-2 Average",WI-38 cells [3],717601
same,"Luminescence signal for ATP measurement, day-3 Average",WI-38 cells [3],804970
same,"Luminescence signal for ATP measurement, day-4 Average",WI-38 cells [3],1007061
same,"Luminescence signal for ATP measurement, day-5 Average",WI-38 cells [3],986943
same,viability at 10 µM,WI-38 cells [3],96.1%
same,O = Potential toxicity,"WI-38 cells [3]; human, 5 days",0
same,Q = Potential toxicity,"WI-38 cells [3]; human, 5 days",0
same,ILS at 60 µM,C. elegans; [13],5.5%
same,ILS at 60 µM,C. elegans; [14],6.8%
same,ILS at 60 µM,"C. elegans; on plate, CF512 temperature-sensitive sterile animals, without FuDR, 1.0 × 10^11 bacteria/ml, read-out: relative change of mean lifespan vs control, Trial 4",-2.7%
same,ILS at 60 µM,C. elegans; [15],16.9%
same,ILS at 66 µM,C. elegans; [16],5.5%
same,ILS at 66 µM,C. elegans; [17],6.8%
same,ILS at 66 µM,C. elegans; [18],16.9%
same,ILS at 66 µM,"C. elegans; Assay 5(ac), 1.0 × 10^11 bacteria/ml, CF512 worms, no FuDR, read-out: Lifespan assay on plates",-2.7%
same,O = Life span- extending scores in worms,C. elegans,0
same,M = Lifespan-extending scores in worms,C. elegans,0
CCc1ccc(Oc2nc3ccccn3c(=O)c2/C=C(\C#N)C(=O)NCc2ccco2)cc1 [Gr-5B],H2O2-resistant,WI-38 cells [1]; [4],YES
same,"No H2O2 stress treatment, at 10 uM (fold change)",WI-38 cells [1]; WI-38 cells,1.19 fold change
same,H2O2-resistant,WI-38 cells [1]; [5],YES
same,pEC50,WI-38 cells [1]; [6],5.06
same,pEC50,WI-38 cells [1]; [7],4.84
same,I = FOXO3-dependency for H2O2-resistance,FOXO3; score,0
same,I = FOXO3-dependency for H2O2-resistance,FOXO3; summary score,0
same,activity at 10 µM,[2]; [8],100%
same,activity at 10 µM,[2]; [9],128%
same,activity at 10 µM,[2]; [10],168%
same,activity at 10 µM,[2]; [11],223%
same,activity at 10 µM,[2]; [12],540%
same,P = Potential DNA-damaging,[2],0
same,R = Potential DNA damaging,[2],0
same,"Luminescence signal for ATP measurement, day-1 Average",WI-38 cells [3],529430
same,"Luminescence signal for ATP measurement, day-2 Average",WI-38 cells [3],736318
same,"Luminescence signal for ATP measurement, day-3 Average",WI-38 cells [3],867160
same,"Luminescence signal for ATP measurement, day-4 Average",WI-38 cells [3],1091073
same,"Luminescence signal for ATP measurement, day-5 Average",WI-38 cells [3],1104305
same,viability at 10 µM,WI-38 cells [3],108%
same,O = Potential toxicity,"WI-38 cells [3]; human, 5 days",0
same,Q = Potential toxicity,"WI-38 cells [3]; human, 5 days",0
same,ILS at 60 µM,C. elegans; [13],37.2%
same,ILS at 60 µM,C. elegans; [14],2%
same,ILS at 60 µM,C. elegans; [15],1.7%
same,ILS at 66 µM,C. elegans; [16],37.2%
same,ILS at 66 µM,C. elegans; [17],2%
same,ILS at 66 µM,C. elegans; [18],1.7%
same,O = Life span- extending scores in worms,C. elegans,0
same,M = Lifespan-extending scores in worms,C. elegans,0
O=C(Nc1cc(C(F)(F)F)ccc1Cl)c1ccc([N+](=O)[O-])o1 [Gr-1B],H2O2-resistant,WI-38 cells [1]; [4],YES
same,"No H2O2 stress treatment, at 10 uM (fold change)",WI-38 cells [1]; WI-38 cells,0.94 fold change
same,Assay 1: H2O2-resistant,WI-38 cells [1],YES
same,H2O2-resistant,WI-38 cells [1]; [5],YES
same,pEC50,WI-38 cells [1]; [6],5.21
same,pEC50,WI-38 cells [1]; [7],5.58
same,I = FOXO3-dependency for H2O2-resistance,FOXO3; score,0
same,I = FOXO3-dependency for H2O2-resistance,FOXO3; summary score,0
same,activity at 10 µM,[2]; [8],134%
same,activity at 10 µM,[2]; [9],95.8%
same,activity at 10 µM,[2]; [10],118%
same,activity at 10 µM,[2]; [11],211%
same,activity at 10 µM,[2]; [12],137%
same,P = Potential DNA-damaging,[2],0
same,R = Potential DNA damaging,[2],0
same,"Luminescence signal for ATP measurement, day-1 Average",WI-38 cells [3],442035
same,"Luminescence signal for ATP measurement, day-2 Average",WI-38 cells [3],577575
same,"Luminescence signal for ATP measurement, day-3 Average",WI-38 cells [3],726850
same,"Luminescence signal for ATP measurement, day-4 Average",WI-38 cells [3],977658
same,"Luminescence signal for ATP measurement, day-5 Average",WI-38 cells [3],1021113
same,viability at 10 µM,WI-38 cells [3],99.4%
same,O = Potential toxicity,"WI-38 cells [3]; human, 5 days",1
same,Q = Potential toxicity,"WI-38 cells [3]; human, 5 days",0
same,Reduction of ATP content after 5 days of continuous incubation,"WI-38 cells [3]; human, 5 days",more than 40%
same,ILS at 60 µM,C. elegans; [13],12.9%
same,ILS at 60 µM,C. elegans; [14],8%
same,ILS at 60 µM,C. elegans; [15],15.1%
same,ILS at 66 µM,C. elegans; [16],12.9%
same,ILS at 66 µM,C. elegans; [17],8%
same,ILS at 66 µM,C. elegans; [18],15.1%
same,O = Life span- extending scores in worms,C. elegans,1 (1 for lifespan extension observed in 2 trials)
same,M = Lifespan-extending scores in worms,C. elegans,1 (1 for lifespan extension observed in 2 trials)
